{
  "source": "patent US12502403B2",
  "about": "“Tafoxiparin for the treatment of preeclampsia” (DILAFOR AB, priority 2020, dated 2025)",
  "key": {"subcutaneous arteries [1]": {"test_system": "subcutaneous arteries", "test": "Myograph: angiotensin II-induced contraction of subcutaneous artery segments after pre-treatment and placental vesicles;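 for all read-outs here: wire myograph tension of human abdominal subcutaneous artery rings from Caesarean deliveries at 37 °C, 30 min pre-treatment, vesicles 30 min, then cumulative angiotensin II 10^−12 to 10^−6 M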", "conditions": "for contractile effect of AngII in the presence of PE: 10 μg/ml pre-incubation; for AUC / AUC/AUC (PE) % / % contractile change: AngII; for % contractile change: vs PE; for Emax [%] AngII: relative to 60 mM potassium contraction; for logEC50 AngII: EC50 of agonist AngII; for effect on Ang II mediated contraction with control P vesicles: vs vesicles only", "text": "(§1) In a myograph model, arteries from subcutaneous tissue of women undergoing Caesarian section were used. The contractile effect of arteries comprising vesicles derived from placentas from pre-eclamptic women was compared with the contractile effect of arteries comprising vesicles derived from placentas from non-preeclamptic women. […] The Low Molecular Weight Heparin (LMWH) tinzaparin (Innohep®, Leo Pharma Denmark) was used as a comparator.\n(§2) Subcutaneous arteries were removed from the subcutaneous fat of the abdomen during Caesarean section and immediately put in cold DMEM-medium. Arteries were dissected in cold Na-Krebs buffer at a pH of 7.3-7.4 and cut into ring segments with a length of 1-2 mm as previously shown. The sections were mounted on two 40 μm-diameter wires and connected to a device sensitive to vascular tension. The stretching force property of the arteries were recorded with Mulvany-Halpern myographs. The mounted arterial segments were immersed into temperature-controlled (+37° C.) tissue baths containing bicarbonate-based buffer solution gassed with carbogen to obtain a pH of 7.3-7.4. Each segment was stretched to 90% of the normal internal circumference, which is the size each segment would have in a transmural pressure of 100 mm Hg. The contractile capacity of each artery segment was checked by exposure to 60 mM KCl buffer solution twice or three times to study viability. After each the bath was washed and the tone returned to baseline. When stable, different molecules or receptor agonists are added to the baths in concentration-dependent manner to observe the vasomotor responses of the vessels.\n(§3) The artery segments were studied by exposure to angiotensin II or endothelin 1 in cumulative concentrations of the agonists. […] In some experiments, 30 minutes after adding vesicles to the tissue baths concentration-contraction curves were obtained by cumulative application of angiotensin II (angiotensin 1 and 2 receptor agonist, concentration range 10^−12 to 10^−6 M). After washing and the tension returning to base line, agonists are added. After washing and the tension returning to base line endothelin 1 was added (endothelin A and B receptor agonist, concentration range 10^−11 to 10^−7 M).\n(§4) After 30 minutes, non-preeclampsia vesicles as control (P) or pre-eclampsia (PE) vesicles were added at a concentration of 200 μg (protein concentration 40 μg/mL).\n(§5) 30 minutes after adding vesicles to the tissue baths, concentration-contraction curves were obtained by cumulative application of angiotensin II (A9525 Sigma-Aldrich Angiotensin II human, powder CAS Number 4474-91-3 dissolved in sodium chloride to a concentration of 10^−3 M) and used in the concentration range 10^−12 to 10^−6 M. After wash-out and the tension had returned to base line, ET-1 (ALX-155-001, Enzo Life Sciences) was added and recorded (endothelin A and B receptor agonist, concentration range 10^−11 to 10^−7 M)."}, "subcutaneous arteries [2]": {"test_system": "subcutaneous arteries", "test": "Myograph: endothelin 1 (ET-1)-induced contraction of subcutaneous artery segments after pre-treatment and placental vesicles", "format": "cell-based, human", "conditions": "for contraction to ET-1 / AUC / AUC/AUC (PE) % / % contractile change: Example 5, 10 μg/ml pre-incubation then PE vesicles; for AUC / AUC/AUC (PE) % / % contractile change: ET-1, pooled from five patients; for % contractile change: vs PE; for reduction of contraction induced with ET-1: vs PE vesicles only; for Emax [%] ET-1: relative to 60 mM potassium contraction; for logEC50 ET-1: EC50 of agonist ET-1; for effect on ET-1 mediated contraction with control P vesicles: vs vesicles only", "text": "as §1, §2, §3, §4, §5"}, "subcutaneous arteries [3]": {"test_system": "subcutaneous arteries", "test": "Myograph: endothelial function (relaxation to substance P after potassium pre-contraction)", "format": "cell-based, human", "description": "In some experiments the endothelial function was tested by pre-contraction the vessels with 30 mM potassium buffer, giving a stable tone and endothelium function evaluated by exposure to substance P (10^−6 or 10^−5 M)."}, "[4]": {"conditions": "Example 3, 10 μg/ml pre-incubation then PE vesicles, pooled from four patients"}, "[5]": {"conditions": "Example 4, 100 μg/ml pre-incubation then PE vesicles"}, "[6]": {"conditions": "Example 4, 100 μg/ml pre-incubation then PE vesicles, pooled from five patients"}, "[7]": {"conditions": "patient 14, 10 μg/ml before PE-vesicles, vs PE vesicles only"}, "[8]": {"conditions": "patient 14, 10 μg/ml pre-treatment then PE vesicles"}, "[9]": {"conditions": "patient 14, drug only, no vesicles"}, "[10]": {"conditions": "patient 14, pre-treatment then P vesicles"}, "[11]": {"conditions": "patient 14, pre-treatment then PE vesicles"}, "[12]": {"conditions": "patient 14, control (P) vesicles"}, "[13]": {"conditions": "patient 14, 10 μg/ml before PE-vesicles"}, "[14]": {"conditions": "patient 13, 10 μg/ml pre-treatment then PE vesicles"}, "[15]": {"conditions": "patient 13, pre-treatment then P vesicles"}, "[16]": {"conditions": "patient 13, control (P) vesicles"}, "[17]": {"conditions": "patient 13, drug only, no vesicles"}},
  "data": [
    {"substance": "tafoxiparin", "values": [
      {"measurement": "contractile effect of AngII in the presence of PE", "setting": "subcutaneous arteries [1]; Example 3", "value": "affect the contractile effect of AngII"},
      {"measurement": "AUC", "setting": "subcutaneous arteries [1]; [4]", "value": 160.5},
      {"measurement": "AUC/AUC (PE) %", "setting": "subcutaneous arteries [1]; [4]", "value": 68.5, "unit": "%"},
      {"measurement": "% contractile change", "setting": "subcutaneous arteries [1]; [4]", "value": "−31.5", "unit": "%"},
      {"measurement": "AngII induced contraction", "setting": "subcutaneous arteries [1]; [5]", "value": "significantly decreased"},
      {"measurement": "AUC", "setting": "subcutaneous arteries [1]; [6]", "value": 306.5},
      {"measurement": "AUC/AUC (PE) %", "setting": "subcutaneous arteries [1]; [6]", "value": 70.8, "unit": "%"},
      {"measurement": "% contractile change", "setting": "subcutaneous arteries [1]; [6]", "value": "−29", "unit": "%"},
      {"measurement": "reduction of contraction induced with angiotensin II", "setting": "subcutaneous arteries [1]; [7]", "value": 79, "unit": "%"},
      {"measurement": "Emax [%] AngII", "setting": "subcutaneous arteries [1]; [8]", "value": 27, "unit": "%"},
      {"measurement": "logEC50 AngII", "setting": "subcutaneous arteries [1]; [9]", "value": 10.2},
      {"measurement": "logEC50 AngII", "setting": "subcutaneous arteries [1]; [10]", "value": 9.8},
      {"measurement": "logEC50 AngII", "setting": "subcutaneous arteries [1]; [11]", "value": 9.4},
      {"measurement": "effect on Ang II mediated contraction with control P vesicles", "setting": "subcutaneous arteries [1]; [12]", "value": "little or no effect"},
      {"measurement": "Emax [%] AngII", "setting": "subcutaneous arteries [1]; [9]", "value": 101, "unit": "%"},
      {"measurement": "Emax [%] AngII", "setting": "subcutaneous arteries [1]; [10]", "value": 73, "unit": "%"},
      {"measurement": "contraction to ET-1", "setting": "subcutaneous arteries [2]", "value": "significantly lower contraction"},
      {"measurement": "AUC", "setting": "subcutaneous arteries [2]", "value": 193.1},
      {"measurement": "AUC/AUC (PE) %", "setting": "subcutaneous arteries [2]", "value": 61.8, "unit": "%"},
      {"measurement": "% contractile change", "setting": "subcutaneous arteries [2]", "value": "−38", "unit": "%"},
      {"measurement": "reduction of contraction induced with ET-1", "setting": "subcutaneous arteries [2]; [13]", "value": 56, "unit": "%"},
      {"measurement": "Emax [%] ET-1", "setting": "subcutaneous arteries [2]; [8]", "value": 77, "unit": "%"},
      {"measurement": "logEC50 ET-1", "setting": "subcutaneous arteries [2]; [9]", "value": 9.9},
      {"measurement": "logEC50 ET-1", "setting": "subcutaneous arteries [2]; [10]", "value": 7.7},
      {"measurement": "logEC50 ET-1", "setting": "subcutaneous arteries [2]; [11]", "value": 6.9},
      {"measurement": "effect on ET-1 mediated contraction with control P vesicles", "setting": "subcutaneous arteries [2]; [12]", "value": "little or no effect"},
      {"measurement": "Emax [%] ET-1", "setting": "subcutaneous arteries [2]; [9]", "value": 180, "unit": "%"},
      {"measurement": "Emax [%] ET-1", "setting": "subcutaneous arteries [2]; [10]", "value": 105, "unit": "%"},
      {"measurement": "Endothelial function [%]", "setting": "subcutaneous arteries [3]; [9]", "value": 85, "unit": "%"},
      {"measurement": "Endothelial function [%]", "setting": "subcutaneous arteries [3]; [10]", "value": 22, "unit": "%"},
      {"measurement": "Endothelial function [%]", "setting": "subcutaneous arteries [3]; [11]", "value": 67, "unit": "%"}
    ]},
    {"substance": "tinzaparin", "values": [
      {"measurement": "contractile effect of AngII in the presence of PE", "setting": "subcutaneous arteries [1]; Example 3", "value": "affect the contractile response of AngII"},
      {"measurement": "AUC", "setting": "subcutaneous arteries [1]; [4]", "value": 170.5},
      {"measurement": "AUC/AUC (PE) %", "setting": "subcutaneous arteries [1]; [4]", "value": 72.7, "unit": "%"},
      {"measurement": "% contractile change", "setting": "subcutaneous arteries [1]; [4]", "value": "−27.3", "unit": "%"},
      {"measurement": "AngII induced contraction", "setting": "subcutaneous arteries [1]; [5]", "value": "significantly decreased"},
      {"measurement": "AUC", "setting": "subcutaneous arteries [1]; [6]", "value": 299.6},
      {"measurement": "AUC/AUC (PE) %", "setting": "subcutaneous arteries [1]; [6]", "value": 69.3, "unit": "%"},
      {"measurement": "% contractile change", "setting": "subcutaneous arteries [1]; [6]", "value": "−31", "unit": "%"},
      {"measurement": "reduction of maximum contraction induced by angiotensin II", "setting": "subcutaneous arteries [1]; patient 13, 10 μg/ml before PE-vesicles, vs PE vesicles only", "value": 23, "unit": "%"},
      {"measurement": "Emax [%] AngII", "setting": "subcutaneous arteries [1]; [14]", "value": 75, "unit": "%"},
      {"measurement": "logEC50 AngII", "setting": "subcutaneous arteries [1]; [15]", "value": 10.8},
      {"measurement": "effect on contraction in the presence of control vesicles (AngII)", "setting": "subcutaneous arteries [1]; [16]", "value": "did not appear to have any reducing effect"},
      {"measurement": "Emax [%] AngII", "setting": "subcutaneous arteries [1]; [17]", "value": 69, "unit": "%"},
      {"measurement": "Emax [%] AngII", "setting": "subcutaneous arteries [1]; patient 13, pre-treatment then P (non-PE) vesicles", "value": 103, "unit": "%"},
      {"measurement": "reduction of contraction induced with angiotensin II", "setting": "subcutaneous arteries [1]; [7]", "value": 14, "unit": "%"},
      {"measurement": "Emax [%] AngII", "setting": "subcutaneous arteries [1]; [8]", "value": 109, "unit": "%"},
      {"measurement": "logEC50 AngII", "setting": "subcutaneous arteries [1]; [10]", "value": 10.0},
      {"measurement": "logEC50 AngII", "setting": "subcutaneous arteries [1]; [11]", "value": 10.0},
      {"measurement": "effect on Ang II mediated contraction with control P vesicles", "setting": "subcutaneous arteries [1]; [12]", "value": "increased contraction"},
      {"measurement": "Emax [%] AngII", "setting": "subcutaneous arteries [1]; [10]", "value": 135, "unit": "%"},
      {"measurement": "contraction to ET-1", "setting": "subcutaneous arteries [2]", "value": "significantly lower contraction"},
      {"measurement": "AUC", "setting": "subcutaneous arteries [2]", "value": 259.5},
      {"measurement": "AUC/AUC (PE) %", "setting": "subcutaneous arteries [2]", "value": 83.1, "unit": "%"},
      {"measurement": "% contractile change", "setting": "subcutaneous arteries [2]", "value": "−17", "unit": "%"},
      {"measurement": "contraction induced with ET-1 (the Emax) compared with PE vesicles only", "setting": "subcutaneous arteries [2]; patient 13, 10 μg/ml before PE-vesicles", "value": "the same"},
      {"measurement": "reduction of log EC50 (ET-1)", "setting": "subcutaneous arteries [2]; patient 13, 10 μg/ml before PE-vesicles, extrapolated", "value": 35, "unit": "%"},
      {"measurement": "Emax [%] ET-1", "setting": "subcutaneous arteries [2]; [14]", "value": 143, "unit": "%"},
      {"measurement": "logEC50 ET-1", "setting": "subcutaneous arteries [2]; [17]", "value": 8.5},
      {"measurement": "logEC50 ET-1", "setting": "subcutaneous arteries [2]; [15]", "value": 8.8},
      {"measurement": "logEC50 ET-1", "setting": "subcutaneous arteries [2]; patient 13, pre-treatment then PE vesicles (extrapolated)", "value": 5.7},
      {"measurement": "effect on contraction in the presence of control vesicles (ET-1)", "setting": "subcutaneous arteries [2]; [16]", "value": "did not appear to have any reducing effect"},
      {"measurement": "Emax [%] ET-1", "setting": "subcutaneous arteries [2]; [17]", "value": 144, "unit": "%"},
      {"measurement": "Emax [%] ET-1", "setting": "subcutaneous arteries [2]; [15]", "value": 166, "unit": "%"},
      {"measurement": "reduction of contraction induced with ET-1", "setting": "subcutaneous arteries [2]; [13]", "value": 15, "unit": "%"},
      {"measurement": "Emax [%] ET-1", "setting": "subcutaneous arteries [2]; [8]", "value": 147, "unit": "%"},
      {"measurement": "logEC50 ET-1", "setting": "subcutaneous arteries [2]; [10]", "value": 9.4},
      {"measurement": "logEC50 ET-1", "setting": "subcutaneous arteries [2]; [11]", "value": 9.9},
      {"measurement": "effect on ET-1 mediated contraction with control P vesicles", "setting": "subcutaneous arteries [2]; [12]", "value": "increased contraction"},
      {"measurement": "Emax [%] ET-1", "setting": "subcutaneous arteries [2]; [10]", "value": 197, "unit": "%"},
      {"measurement": "Endothelial function [%]", "setting": "subcutaneous arteries [3]; [17]", "value": 96, "unit": "%"},
      {"measurement": "Endothelial function [%]", "setting": "subcutaneous arteries [3]; patient 13, pre-treatment then PE vesicles", "value": 119.95, "unit": "%"},
      {"measurement": "Endothelial function [%]", "setting": "subcutaneous arteries [3]; patient 13, pre-treatment then non-preeclampsia (P) vesicles", "value": 69.11, "unit": "%"},
      {"measurement": "Endothelial function [%]", "setting": "subcutaneous arteries [3]; [10]", "value": 22, "unit": "%"},
      {"measurement": "Endothelial function [%]", "setting": "subcutaneous arteries [3]; [11]", "value": 1, "unit": "%"}
    ]}
  ]
}
